Like-named read-outs stand apart in the source and are kept apart here.
How the values were obtained:
MCF-7 cells [1] = test: RNA-seq differential gene expression; format: cell-based, human; conditions: MCF-7 treated with RS3195 10 μM
KDM5 enzymes [2] = conditions: cited from earlier work
MCF-7 cells [3] = test: COMET assay (DNA damage); format: cell-based, human; conditions: MCF-7, sham-irradiated, 3 μM
Procedure: To test if the cytotoxic effects of KDM5 inhibitors on MCF-7 cells were related to an increase of DNA damage accumulation, we collected cells treated with the three KDM5 inhibitors or DMSO-treated control cells after one hour from irradiation with 3 Gy of ionizing radiation (or sham-irradiation). We then performed COMET assays to assess DNA damage.
The COMET assay was performed using the OxiSelect™ 96-Well Comet Assay Kit (Cell Biolabs, Inc., San Diego, CA, USA) following the manufacturer’s instruction manual (https://www.cellbiolabs.com/sites/default/files/STA-355-comet-assay-kit.pdf).

HeLa cells = tested on: HeLa cells; set-up: method as in PMID 24489688; conditions: without affecting methylation of other lysins; cited from earlier work
KDM5 enzymes [4] = test: Enzymatic inhibition assay (Epigenase JARID Demethylase Activity/Inhibition Assay Kit, fluorometric); format: biochemical; conditions: in vitro, toward KDM5 enzymes; This work
Procedure: Inhibition by RS5033 (IC50) was determined by the Epigenase™ JARID Demethylase Activity/Inhibition Assay Kit (Fluorometric) (#P-3083-48 Epigentek, Farmingdale, NY, USA) which is a complete set of optimized reagents, designed for an easy and fast fluorometric measurement of JARID activity or inhibition. The antibody-based, immune-specific method directly detects JARID-converted demethylated products, rather than by- products, in a 96 stripwell microplate format.

[5] = tested on: H3K27me3 levels in MCF-7 cells; test: Western blotting of H3K27me3 levels; format: cell-based, human
Procedure: Histone isolation was performed according to acid extraction of histones protocol of Shechter and colleagues. Histone concentration was determined by running 5 μL of samples and known concentrations of commercially available purified calf thymus histones (from Sigma Aldrich Cat. #000000010223565001) on a SDS-PAGE gel. The gel is stained with Coomassie blue G 250 (BIO-RAD Cat. #161-0786) for 1 hour at room temperature and then destained in distilled water. The gel image is acquired with ChemiDoc XRS+ Imaging System (Bio-Rad, Hercules, CA, USA) and the volumes of bands of the samples are compared to standard concentrations of calf thymus histone.
Proteins were resolved on a 12% (histones) or 5% (JARID1B) denaturing polyacrylamide gel, using either 4 μg of histone preparation or 40 μg of cell lysate. […] Blots were scanned and analyzed with a ChemiDoc XRS+ Imaging System (Bio-Rad). The volumes of each band of protein was acquired using Bio-Rad’s ImageLab software by means of volume tools using global quantification. The signal for each protein was normalized to the housekeeping protein and ratios with average control values were determined. For histones as loading control was used either total histone H3 detected by a specific antibody or histone H1 levels by staining the upper part of the gel properly cut before protein transfer on nitrocellulose membrane.

[6] = tested on: γ-H2AX levels in MCF-7 cells; test: Western blotting of H2AX phosphorylation after irradiation; format: cell-based, human; conditions: RS5033 10 μM, KDOAM-25 0.03 μM
Procedure: Proteins were resolved on a 12% (histones) or 5% (JARID1B) denaturing polyacrylamide gel, using either 4 μg of histone preparation or 40 μg of cell lysate. After electrophoresis, proteins were transferred on a nitrocellulose membrane (Protran™ […] NC, # 10600002, GE Healthcare (Amersham™), Chicago, IL, USA) via wet transfer method using a Bio-Rad tank. Transfer efficiency was verified via ponceau staining (#P7767, Sigma-Aldrich). Filters were blocked with either milk (#70166, Sigma-Aldrich) or bovine serum albumin (#A3069, Sigma-Aldrich) and then hybridized over night at 4 °C in gentle rotation with the following antibodies: rabbit anti-H3K4me3 (1:1000, #39915, Active Motif, RRID:AB_2687512); rabbit-anti-H3K27me3 (1:1000, #9733, Cell Signaling Technology, RRID:AB_2616029); rabbit-anti- H3K9pan-methylated (1:1000, #4473, RRID:AB_10544693); rabbit-anti-H3 ([…], Cat#1791, ABCAM, RRID:AB_302613); rabbit anti-H2AX (1:1000, Cat#7631, Cell Signaling Technology, RRID:AB_10860771), rabbit anti-Phospho-H2AX (1:1000, Cat#9718, Cell Signaling Technology, RRID:AB_2118009), rabbit anti-JARID1B (1:50, Cell Signaling Technology, Cat#3273 RRID: AB_1264191). Goat-anti-Rabbit Horseradish Peroxidase conjugated (1:10,000, #31460, Thermo Fisher Scientific, Waltham, MA, USA RRID:AB_228341) was used as secondary antibody for 1 hour hybridization at room temperature. Blots were scanned and analyzed with a ChemiDoc XRS+ Imaging System (Bio-Rad). The volumes of each band of protein was acquired using Bio-Rad’s ImageLab software by means of volume tools using global quantification. The signal for each protein was normalized to the housekeeping protein and ratios with average control values were determined. For histones as loading control was used either total histone H3 detected by a specific antibody or histone H1 levels by staining the upper part of the gel properly cut before protein transfer on nitrocellulose membrane.

Structure (SMILES)	log2FoldChange AHRR (MCF-7 cells [1]; gene AHRR)	log2FoldChange CYP1A1 (MCF-7 cells [1]; gene CYP1A1)	log2FoldChange CYP1B1 (MCF-7 cells [1]; gene CYP1B1)	log2FoldChange RPS3A (MCF-7 cells [1]; gene RPS3A)	log2FoldChange TXNRD1 (MCF-7 cells [1]; gene TXNRD1)	inhibition of KDM5B and KDM5D activity in vitro (KDM5 enzymes [2])	IC50 (KDM5 enzymes [2]; in vitro, toward KDM5 enzymes, ref Mannironi et al. [36])	cells with comet tail, sham-irradiated (intrinsic genotoxicity) (MCF-7 cells [3])	H3K4 demethylation in HeLa cells (HeLa cells)	IC50 (KDM5 enzymes [4])	H3K27me3 levels ([5]; MCF-7, 24 h, three concentrations (1, 10, 30 μM))	decrease of H3K27 tri-methylation ([5]; MCF-7, highest concentration of inhibitor)	ɤH2AX increase normalized to the amount of H2AX ([6]; MCF-7, 6 Gy, 4-36 h)	amount of ɤH2AX ([6]; MCF-7, sham-irradiated and irradiated (6 Gy) cells)
CCOC(=O)c1cccn1C(=O)c1cccc(NS(=O)(=O)c2ccc(OC)cc2)c1 [RS3195]	2.438	7.446	3.42	2.088	1.608	selectively inhibit	2000 nM	strong effect	decrease H3K4 demethylation	–	–	–	–	–
CCOC(=O)c1ccccc1C(=O)c1cccc(NS(=O)(=O)c2ccc(OC)cc2)c1 [RS5033]	–	–	–	–	–	–	–	–	–	1000 nM	decrease	about two-fold	statistically significant at 4 h and 24 h	increases
